One test has as its target T1, Lin28A ZKD (Homo sapiens, UniProt Q9H9Z2).
T1 construct: Lin28A ZKD (aa121-187); His-tag; made in house; host or cells: Escherichia coli BL21
T1 sequence (Q9H9Z2 121-187): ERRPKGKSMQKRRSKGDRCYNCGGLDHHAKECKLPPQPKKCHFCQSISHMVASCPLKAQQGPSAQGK
Nature of the test: EMSA, Lin28A ZKD–Let-7 complex. Format: binding. The settings on record: compounds 100–1200 uM. As for the experimental part:
(§1) EMSA followed the standard protocols we published with minor modifications. An IRDye800CWN-labeled Let-7 RNA probe was purchased from IDT (Coralville, IA, USA). Lin28B or Lin28A proteins were incubated with […] of probe in a standard 20 uL EMSA reaction in a reaction buffer containing 20 mM HEPES-NaOH, pH 7.4, 2 mM DTT, 3 mM MgCl2, 0.05% NP-40, protease inhibitors, and 0.1 ug poly[dI:dC]. After incubation for 30 min at 37 °C, reactions were loaded onto 4% non-denatured polyacrylamide gel in 0.5× TBE buffer. The RNA oligo bands were visualized by using the Li-Cor Odyssey 9120 Infrared Imaging System.
(§2) Figure 5 Lin28 inhibitors block the Lin28A isoform. (A) EMSA used 10 nM of IR800DyeCWN-labeled Let-7 probe (lane 1), 0.5 uM Lin28A ZKD protein with 10 nM of labeled Let-7 probe (lane 2), or Lin28A ZKD, labeled Let-7 probe and 100× non-labeled competitor probe (lane 3). EMSA used Lin28A ZKD, labeled Let-7 probe, and 100–1200 uM of indicated compounds (lanes 4–10). (B) FP assays were performed by using 10 uM of Lin28A ZKD, 1 nM of FAM-labeled Let-7 probe, and 1 nM–200 uM of compounds. (C) Lin28A-positive IGROV1 cells were treated with 20 uM of the indicated compound for 48 h. Real-time qPCR measured RNA levels of Let-7d, SOX2, and HMGA2. Three biological replicates were performed and all results are presented as mean +/− SD. p-value ≤ 0.05—(*); ≤0.01—(**); ≤0.001—(***).

Test [1] concerns DUNE cells. Nature of the test: Immunoblotting in DUNE cells. The class given is cell-based. To be noted: 20uM, 24 hours, immunoblot. As for the experimental part:
(§3) There are several standard molecular techniques, including real-time qPCR, flow cytometry, cell proliferation, colony formation, and immunoblotting assays, that have been reported previously by our lab.
Figure S2. DUNE cells were treated with 20uM of indicated compounds for 24 hours. Protein lyses were collected and immunoblotted with Vinculin, SOX2, and HMGA2 antibodies. […]
Figure S3. DUNE or DUNE(KO) cells were treated with 20uM of indicated compounds for 24 hours. Protein lyses were collected and immunoblotted with Lin28b, SYP, CD44, and CD133 antibodies. Beta-actin was used as the loading control. […]
A general note: A western blot detects proteins with antibodies after separation by electrophoresis.

Test [2] concerns DUNE cells. In words: Colony formation assay, DUNE cells. The class given is cell-based. The settings on record: 20 uM (Figure 7C). As for the experimental part: as §3
(§4) Figure 7 Lin28 inhibitors block CSC phenotypes of cancer cells. (A) FACS analysis using CD44 and CD133 antibodies detected CSC cell populations from DUNE or DUNE (KO) cells treated with either vehicle or 20 uM of Ln7, Ln15, and Ln115 for 48 h. (B) DUNE, DUNE (KO), and IGROV1 cell proliferation were measured in the presence of 20 uM of Ln7, Ln15, and Ln115. (C) Colony formation assays (colonies >[…] were counted) measured the suppressive effects of Ln7, Ln15, and Ln115 at the concentration of 20 uM. p-value ≤ 0.01—(**); ≤0.001—(***).
Figure S4. A. Colony formation assays: DUNE cells were seeded in 500 cells/well. Chemicals were added one day after cell seeding (n=3 wells/chemical). Medium with chemical at the concentration of 60uM was changed every four days for 14 days. […]
0.005% crystal violet staining for 2 hours. ImageJ was used to analyze colony size and numbers (circularity was set at 0.5 -1, which is equivalent to 50uM in size). Only colonies larger than […]
50uM were countered. […]
(1 picture or pasted object on this page, not shown here)

Test [3] deals with DUNE cells. Nature of the test: Real-time qPCR of Let-7d, SOX2, HMGA2 in DUNE cells. To be noted: 20 uM, 48 h. Format: cell-based. As for the experimental part:
(§5) The DUNE cell line and DUNE cells with Lin28B knockout by CRISPR (DUNE (KO)) were reported in our previous studies. IGROV1 cells were obtained from Sigma-Aldrich (St. Louis, MO, USA). DUNE and DUNE (KO) cells were cultured in Dulbecco’s Modified Eagle Medium with high Glucose/L-glutamine (DMEM; Hyclone, Logan, UT, USA) and 10% of fetal bovine serum (FBS; Gibico, Waltham, MA, USA). IGROV1 cells were cultured in Roswell Park Memorial Institute 1640 (RPMI-1640; Hyclone) medium with 10% FBS. All the cell lines were incubated in 5% CO2 at 37 °C and were tested for mycoplasma contamination monthly and cell line authentication was tested by short tandem repeat profiling by ATCC.
as §3
Figure 4 Lin28 inhibitors restore Let-7d expression and suppress SOX2 and HMGA2 genes. DUNE (top) and DUNE (KO) (bottom) cells were treated with 20 uM of the indicated compounds for 48 h. Real-time qPCR measured RNA levels of Let-7d, SOX2, and HMGA2. Three biological replicates were performed and all results are presented as mean +/− SD. p-value ≤ 0.05—(*); ≤0.01—(**); ≤0.001—(***).

The target of the next test is T2, Lin28B ZKD (Homo sapiens, UniProt Q6ZN17).
T2 construct: His-tagged human Lin28B ZKD (aa110-174); His-tag; made in house; host or cells: Escherichia coli BL21
T2 sequence (Q6ZN17 110-174): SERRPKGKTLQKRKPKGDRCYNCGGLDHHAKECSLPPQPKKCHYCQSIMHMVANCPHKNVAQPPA
In words: EMSA, Lin28B ZKD–Let-7 complex. The class given is binding. To be noted: compounds 0–1200 uM. As for the experimental part: as §1
Figure 3 Lin28 inhibitors block the interaction between Lin28B ZKD and Let-7. (A) EMSA used 10 nM of IR800DyeCWN-labeled let-7 probe (lane 1), 0.5 uM Lin28B ZKD protein with 10 nM of labeled Let-7 probe (lane 2), or Lin28B ZKD, labeled Let-7 probe and 100× non-labelled competitor probe (lane 3). EMSA used Lin28B ZKD, labeled Let-7 probe, and 100–1200 uM of indicated compounds (lanes 4–10). (B) FP assays were performed by using 10 uM of Lin28B ZKD and 1 nM of FAM-labeled Let-7 probe and 1 nM–1000 uM of compounds. (C) Bio-layer interferometry (BLI) assays were performed using 0–25 uM of Ln115 with Avi-tagged Lin28B ZKD protein. (D) Chemical structures of the three lead compounds were shown.
A general note: Mobility shift assays separate free from complexed probe on a gel.

For test [4], the system named is DUNE cells. Nature of the test: FACS analysis of CD44 and CD133 positive cell populations. The class given is cell-based. The settings on record: 20 uM, 48 h; for % of CD133+ cells: paired vehicle 60.8–65.4; for % CD44+ cells: paired vehicle 84.7–94.9. As for the experimental part: as §3, §4
Background: Flow cytometry measures light scatter and fluorescence of single cells or particles in a stream.

A further test concerns IGROV1 cells. In words: Real-time qPCR of Let-7d, SOX2, HMGA2 in IGROV1 cells. Format: cell-based. The settings on record: IGROV1 cells (Lin28A-positive), 20 uM, 48 h. As for the experimental part: as §5, §3, §2

As for `O=c1[nH]c(Nc2ccccc2O)cs1` [Ln15], on Lin28A ZKD, the “concentration that inhibits formation of Lin28A ZKD–Let-7 complex in EMSA” value (“concentration that inhibits formation” below) lay in the range of 100 to 400 µM. The “protein expression of SYP” value in the test with DUNE cells [1] is reported as “suppressed”. In addition, in the test with DUNE cells [2], the “formation of cancer cell colonies” value is on record as “strongly suppressed”. Besides, in the test on DUNE cells [2] (colonies >50 uM counted), the “suppressive effect on colony formation” value is listed as ~ 90%. Moreover, in the test with DUNE cells [3], the “HMGA2 mRNA level” value was “strongly inhibited”, the Let-7d expression level result was “approximately six- to eight-fold” and the “SOX2 mRNA level” value was “strongly inhibited”. Further, the “concentration that disrupts ZKD–Let-7 complex in EMSA” value on Lin28B ZKD was found to be 400 µM. Besides, in the test on DUNE cells [4], the “CD44- and CD133-positive cell populations” value is “significant reductions”; the “% of CD133+ cells” value is recorded as 14.7 ± 2.1%; the “% CD44+ cells” value is recorded as 70.1 ± 4.6%. The “upregulation of Let-7” value in the test on IGROV1 cells is listed as 10 fold.
For the molecule `CC(=O)N(C)c1cccc(-c2ccc3nnc(C)n3n2)c1` [compound 1632, reference compound], on Lin28A ZKD, the “concentration that inhibits formation” value was > 1200 µM. Further, in the test with DUNE cells [2], the “formation of cancer cell colonies” value is reported as “strongly suppressed”. In the test with DUNE cells [3], the “HMGA2 mRNA level” value is recorded as “not”, the Let-7d expression level entry was “did not show any impacts” and the “SOX2 mRNA level” value is “not”. For the same molecule, in the test with IGROV1 cells, the “Let-7 microRNA levels” value is on record as “upregulated”.
On to `CCOc1cccc2c1N[C@@H](c1ccc(C(=O)O)cc1)[C@H]1CC=C[C@@H]21` [Li71, reference compound], for which the “concentration that inhibits formation” value at Lin28A ZKD fell in the range of 100 to 400 µM. Also, the “formation of cancer cell colonies” value in the test with DUNE cells [2] is on record as “strongly suppressed”. Moreover, in the test on DUNE cells [3], the “HMGA2 mRNA level” value is given as “strongly inhibited”, the Let-7d expression level entry is “approximately six- to eight-fold” and the “SOX2 mRNA level” value was “strongly inhibited”. Further, the “inhibition of ZKD–Let-7 complex in EMSA” value against Lin28B ZKD is recorded as “robust inhibition”. In addition, the “Let-7 microRNA levels” value in the test on IGROV1 cells is “upregulated”.
Take `O=c1cccc(-c2nc3cc(F)c(O)cc3c(=O)[nH]2)[nH]1` [Ln115]: at Lin28A ZKD, the “concentration that inhibits formation” value lay within 100 to 400 µM. The “protein expression of SYP” value in the test on DUNE cells [1] is “suppressed”. The “formation of cancer cell colonies” value in the test on DUNE cells [2] is listed as “strongly suppressed”. For the same molecule, in the test on DUNE cells [3], the “HMGA2 mRNA level” value is given as “strongly inhibited”, the Let-7d expression level result was “approximately six- to eight-fold” and the “SOX2 mRNA level” value is reported as “strongly inhibited”. Moreover, in the test on DUNE cells [4], the “CD44- and CD133-positive cell populations” value is listed as “significant reductions”; the “% of CD133+ cells” value came to 30 ± 4.5%; the “% CD44+ cells” value is 54.3 ± 6.0%.
As for `CCc1cc(=O)[nH]c(Nc2cc(Cl)ccc2O)n1` [Ln7], at Lin28A ZKD, the “concentration that inhibits formation” value is > 1200 µM. The “formation of cancer cell colonies” value in the test on DUNE cells [2] is on record as “strongly suppressed”. Besides, in the test with DUNE cells [3], the “HMGA2 mRNA level” value is given as “strongly inhibited”, the Let-7d expression level entry is listed as “approximately six- to eight-fold” and the “SOX2 mRNA level” value is on record as “strongly inhibited”. Also, the “concentration that disrupts ZKD–Let-7 complex in EMSA” value at Lin28B ZKD is > 1000 µM. In the test on DUNE cells [4], the “CD44- and CD133-positive cell populations” value is listed as “significant reductions”; the “% of CD133+ cells” value is given as 37.1 ± 4.2%; the “% CD44+ cells” value was 61.6 ± 3.2%.
